Results published in article PMC7247329, “Kaempferol and Its Glycoside, Kaempferol 7-O-rhamnoside, Inhibit PD-1/PD-L1 Interaction In Vitro” (International Journal of Molecular Sciences, 2020).
Values joined by “and” are separate entries in the source; they are usually repeats but may differ in a detail not shown here. Identical values can stand only once.

Columns and labels:
hPD-L1 = tested on: hPD-L1; parameters: method as in PMID 31455818, PMID 31374878; settings: biochemical results; cited from earlier work
PD-1 Jurkat cells = assay: Cell Counting Kit-8 (CCK) cell viability assay; format: cell-based, human; settings: 24 h
[1] = tested on: PD-1/PD-L1 interaction in co-cultured PD-1 Jurkat T cells and PD-L1/aAPC CHO-K1 cells; assay: Cell-based PD-1/PD-L1 blockade bioassay (NFAT-luciferase reporter, co-culture); parameters: species or system human; settings: co-culture 24 h; for EC50: Homo sapiens
From the text: When co-cultured with PD-1 Jurkat T cells and PD-L1/aAPC CHO-K1 cells, TCR activation is restrained by PD-1/PD-L1 ligation and the NFAT-luciferase reporter activity. When PD-1/PD-L1 interaction is disrupted, TCR activation induces luminescence via activation of the NFAT pathway in co-culture systems. Therefore, the effects of KO and its glycosides on PD-1/PD-L1 interaction in the cell model system were examined by measuring NFAT-luciferase reporter activity after co-culture with PD-1/NFAT Reporter-Jurkat cells and PD-L1/aAPC CHO-K1 cells. […] The results described above indicate that KO and its glycosides are involved with the PD-1/PD-L1 blockade, as confirmed by the biochemical assay.
A PD-1/PD-L1 Blockade Bioassay kit was used according to the supplier’s instructions (Promega, Fitchburg, WI, USA) with a slight modification. Briefly, the PD-L1 aAPC/CHO-K1 cells were seeded in 96-well plates at a density of 5 × 10^4/well in the complete culture medium. A few hours later, the medium was removed, and 1 × 10^5 PD-1 Jurkat cells were added to each well with test inhibitors. The cells were cultured for 24 h at 37 °C and then lysed using the Bio-Glo™ Luciferase Assay System (Promega, Madison, WI, USA). After incubation for 15 min, luminescence was quantified using a GloMax® Explorer Multimode Microplate Reader (Promega). Data are presented as fold to untreated control.

PD-L1/aAPC CHO-K1 cells = assay: Cell Counting Kit-8 (CCK) cell viability assay; format: cell-based; settings: 24 h
[2] = reported; no reference given; cited from earlier work
[3] = tested on: PD-1 level in co-cultured PD-1 Jurkat cells and PD-L1 CHO-K1 cells; assay: Western blot of PD-1 expression in co-cultured cells; format: cell-based, human; settings: 24 h
[4] = molecular target: T1, PD-1/PD-L1 protein–protein interaction (Homo sapiens, UniProt Q9NZQ7); assay: PD-1/PD-L1 competitive ELISA; format: binding
T1 construct: purchased BPS Bioscience #71104 (hPD-L1); #71109 (biotinylated hPD-1); kit #72005
T1 sequence (Q9NZQ7 19-239 limits assumed): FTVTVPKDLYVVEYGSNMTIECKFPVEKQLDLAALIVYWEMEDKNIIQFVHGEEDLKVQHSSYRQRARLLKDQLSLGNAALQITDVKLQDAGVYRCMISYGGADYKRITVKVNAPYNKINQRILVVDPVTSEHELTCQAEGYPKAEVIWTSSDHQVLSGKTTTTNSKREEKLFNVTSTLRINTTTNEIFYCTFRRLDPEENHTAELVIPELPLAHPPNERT
Description: To elucidate the effect of test inhibitors on PD-1/PD-L1 protein–protein interaction, PD-1/PD-L1 Competitive ELISA Screening Kits (BPS Bioscience Inc., San Diego, CA, USA) were used according to the supplier’s instructions [27]. Briefly, recombinant hPD-L1 (BPS Bioscience, #71104) was coated overnight at 1 μg/mL in phosphate-buffered saline (PBS) in 96-well plates (Corning Inc., New York, NY, USA). Plates were washed with PBS containing 0.1% Tween (PBS-T), blocked for 1 h at room temperature with PBS containing 2% (w/v) BSA, and then washed again. Fifty microliters of 0.5 μg/mL biotinylated hPD-1 (BPS Bioscience, #71109) was added to the wells, and the plates were incubated for 2 h at room temperature. After three washes in PBS-T, 50 μL of 0.2 μg/mL HRP-conjugated streptavidin was added to each well, and the plates were incubated for 1h. After incubation, plates were washed three times in 0.1% PBS-T, and relative chemiluminescence was measured on a SpectraMax L Luminometer from Molecular Devices (San Jose, CA, USA).

recombinant PD-1 (hPD-1) = recombinant PD-1 (hPD-1) (Homo sapiens, UniProt Q15116); assay: Surface plasmon resonance (Biacore T200); format: binding; settings: SPR
Chain of recombinant PD-1 (hPD-1) (Q15116 25-170 limits assumed): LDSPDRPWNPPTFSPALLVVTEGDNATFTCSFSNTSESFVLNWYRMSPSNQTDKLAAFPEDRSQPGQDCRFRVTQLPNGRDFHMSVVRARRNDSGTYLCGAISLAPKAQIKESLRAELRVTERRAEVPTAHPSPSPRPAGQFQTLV

biotinylated human PD-L1 = molecular target: T2, biotinylated human PD-L1 (Homo sapiens, UniProt Q9NZQ7); assay: Biolayer interferometry (BLItz) kinetic analysis; format: binding
T2 construct: purchased Sino Biological
T2 sequence (Q9NZQ7 19-290): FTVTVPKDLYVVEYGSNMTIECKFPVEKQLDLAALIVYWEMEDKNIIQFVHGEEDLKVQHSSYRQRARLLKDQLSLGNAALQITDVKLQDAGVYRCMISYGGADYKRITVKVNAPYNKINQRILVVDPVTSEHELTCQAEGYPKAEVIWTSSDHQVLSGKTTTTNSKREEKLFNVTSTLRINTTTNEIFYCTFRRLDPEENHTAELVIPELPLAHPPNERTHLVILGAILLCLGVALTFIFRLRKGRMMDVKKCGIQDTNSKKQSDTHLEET
Description: (§1) To measure the binding affinities and kinetic constants of test inhibitors, BLI analysis was conducted according to a previous report, with slight modifications. Briefly, BLI on a BLItz system is a label-free analytic technology for biomolecular interactions by measuring interference patterns of light reflected from two surfaces. After pre-equilibration of the SA BLI sensor (Pall FortéBio Corp., Menlo Park, CA, USA) in PBS buffer for 10 min, biotinylated human PD-1 (BioVision, Milpitas, CA, USA) and PD-L1 (Sino biological, Beijing, China) were fully loaded onto the sensors by immersion in 4 μL of PD-1 and PD-L1 solution and then dissolved in PBS buffer to 50 μg/mL. Test inhibitors for the kinetic analysis were prepared by 100-fold dilution of stock solution and dissolved in 100% DMSO (0, 0.25, 0.5, and 0.75 mM) in PBS buffer. Binding kinetics were measured as follows: step 1, initial baseline in PBS buffer containing 1% DMSO for 15 s; step 2, association in 4 μL of test inhibitors solution for 20 s; and step 3, dissociation in PBS buffer containing 1% DMSO for 20 s. The kinetic constants were calculated using the BLItz Pro software by fitting the association and dissociation data to a 1:1 model. The equilibrium dissociation constant, KD, was calculated as the dissociation constant (kd)/association constant (ka).

biotinylated human PD-1 = molecular target: T3, biotinylated human PD-1 (Homo sapiens, UniProt Q15116); assay: Biolayer interferometry (BLItz) kinetic analysis; format: binding
T3 construct: purchased BioVision
T3 sequence (Q15116 25-288): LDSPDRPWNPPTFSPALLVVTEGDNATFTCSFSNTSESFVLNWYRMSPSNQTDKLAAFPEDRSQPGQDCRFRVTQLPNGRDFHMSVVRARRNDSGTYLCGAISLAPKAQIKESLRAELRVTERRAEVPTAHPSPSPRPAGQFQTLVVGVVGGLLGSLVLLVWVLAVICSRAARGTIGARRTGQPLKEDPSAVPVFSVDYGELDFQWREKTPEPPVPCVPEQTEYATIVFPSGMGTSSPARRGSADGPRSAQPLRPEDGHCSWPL
Description: as §1

Structure (SMILES) | Direct targeting of hPD-L1 (hPD-L1) | Cytotoxic concentration (not cytotoxic up to) (PD-1 Jurkat cells) [µM] | Effect on PD-1/PD-L1 interaction in cell model ([1]; indicated concentration) | Cytotoxic concentration (not cytotoxic up to) (PD-L1/aAPC CHO-K1 cells) [µM] | Solubility in water [2] | Effect on PD-1 level [3] | IC50 ([4]; PD-L1-coated plate, biotinylated PD-1, read-out: IC50, PD-1/PD-L1 blocking effect) [µM] | EC50 [1] [µM] | Kd (recombinant PD-1 (hPD-1); Biacore T200, recombinant PD-1) [µM] | Rmax (recombinant PD-1 (hPD-1); Biacore software) | Inhibitory effect on PD-1/PD-L1 binding [4] | kd (biotinylated human PD-L1; PD-L1) [s⁻¹] | kon (biotinylated human PD-L1; PD-L1, read-out: ka) [M⁻¹ s⁻¹] | Kd (biotinylated human PD-L1; PD-L1 immobilized on SA sensor, PBS pH 7.3 with 1% DMSO, 1:1 model) [µM] | kd (biotinylated human PD-1; PD-1) [s⁻¹] | kon (biotinylated human PD-1; PD-1, read-out: ka) [M⁻¹ s⁻¹] | Kd (biotinylated human PD-1; PD-1 immobilized on SA sensor, PBS pH 7.3 with 1% DMSO, 1:1 model) [µM]
C[C@@H](O)[C@H](NC(=O)N[C@@H](CC(N)=O)c1nc([C@@H](N)CO)no1)C(=O)O [CA-170] | did not target hPD-L1 directly | – | – | – | – | – | – | – | – | – | – | – | – | – | – | – | –
C[C@@H]1O[C@@H](Oc2cc(O)c3c(=O)c(O[C@@H]4O[C@@H](C)[C@H](O)[C@@H](O)[C@H]4O)c(-c4ccc(O)cc4)oc3c2)[C@H](O)[C@H](O)[C@H]1O [KI, kaempferol-3,7-dirhamnoside] | – | > 100 | no effect at the indicated concentration | > 100 | – | – | – | – | – | – | – | – | – | – | – | – | –
O=c1c(O)c(-c2ccc(O)cc2)oc2cc(O)cc(O)c12 [KO, kaempferol] | – | > 100 | – | > 100 | 440 mg/L and 1.537 mM | not upregulation of PD-1 level | 7.8 | 16.5 | – | – | – | – | – | – | – | – | –
C[C@@H]1O[C@@H](Oc2cc(O)c3c(=O)c(O)c(-c4ccc(O)cc4)oc3c2)[C@H](O)[C@H](O)[C@H]1O [KR, kaempferol 7-O-rhamnoside] | – | > 100 | – | > 100 | 1.16 mg/mL and 2.68 mM | not upregulation of PD-1 level | – | 15.4 | 156 | 24.92 | revealed inhibitory effects on PD-1/PD-L1 binding but did not show dose-dependent activities | 0.00773 | 392 | 19.7 | 0.00979 | 315 | 31.1
